# In PMC6766655, “AhR–ROR-γt complex is a therapeutic target for MAP4K3/GLK^highIL-17A^high subpopulation of systemic lupus erythematosus” (The FASEB Journal, 2019):
# Tests used:
# GCK (MAP4K2) = biological target: T1, GCK (MAP4K2) (Homo sapiens, UniProt Q12851); assay: In vitro kinase assay, myelin basic protein as substrate (ADP-Glo); type: biochemical; settings: recombinant kinase domain
# T1 construct: Recombinant proteins of kinase domains of various MAP4Ks were used; purchased Promega
# T1 sequence (Q12851 16-273 limits assumed): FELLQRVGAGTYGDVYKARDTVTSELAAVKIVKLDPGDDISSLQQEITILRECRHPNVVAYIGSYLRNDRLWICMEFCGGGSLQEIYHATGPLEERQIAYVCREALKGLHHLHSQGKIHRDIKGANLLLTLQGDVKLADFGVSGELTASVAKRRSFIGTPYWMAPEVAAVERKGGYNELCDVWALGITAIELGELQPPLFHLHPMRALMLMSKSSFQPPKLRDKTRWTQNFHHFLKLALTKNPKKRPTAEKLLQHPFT
# HPK1 (MAP4K1) = biological target: T2, HPK1 (MAP4K1) (Homo sapiens, UniProt Q92918); assay: as above; type: biochemical; settings: recombinant kinase domain
# T2 construct: Recombinant proteins of kinase domains of various MAP4Ks were used; purchased Promega
# T2 sequence (Q92918 17-274 limits assumed): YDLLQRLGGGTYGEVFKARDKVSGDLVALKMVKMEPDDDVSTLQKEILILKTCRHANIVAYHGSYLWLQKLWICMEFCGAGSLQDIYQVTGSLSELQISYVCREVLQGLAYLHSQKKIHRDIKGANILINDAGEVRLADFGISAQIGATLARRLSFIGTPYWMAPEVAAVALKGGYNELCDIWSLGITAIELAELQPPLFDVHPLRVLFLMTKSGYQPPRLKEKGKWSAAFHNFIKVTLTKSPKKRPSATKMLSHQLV
# EAE mice = assay: MOG-induced EAE in wild-type C57BL/6J mice; type: in vivo; settings: 0.4 μg/g body weight i.v. every 3 d
# murine primary T cells = assay: ELISA of cytokines in supernatants of anti-CD3/CD28-stimulated murine primary T cells; type: cell-based; settings: anti-CD3 plus anti-CD28
# Text: Primary human T cells were freshly isolated and negatively selected from the PBLs of clinical samples using a cocktail of biotin-conjugated anti-CD19, anti-CD14, and anti-CD11b antibodies (BioLegend) on a magnetic cell separation column (Miltenyi Biotec, Bergisch Gladbach, Germany) ([26]). In addition, primary murine T cells were negatively selected from the spleens of mice using magnetically coupled antibodies against CD11b, B220, CD49b, CD235, and TER-119 (Miltenyi Biotec) ([18]).
# We further studied whether IL-17A production is abolished by verteporfin in human and murine T cells. We first tested the inhibitory effect of verteporfin in murine T cells stimulated with T-cell receptor (TCR) signaling (anti-CD3 plus anti-CD28 antibodies). […] This reduction is likely due to the inhibition of NF-κB activation ([18]) by the verteporfin treatment. This notion is supported by our published results that TCR-induced TNF-α and IFN-γ levels in T cells are inhibited by IKK-β conditional knockout ([18]). Next, we studied whether verteporfin attenuates IL-17A production using human peripheral blood T cells with stimulation. The levels of T-cell–secreted IL-17A in unstimulated T cells from patients with SLE and RA were enhanced compared with those from healthy controls (Fig. 5B). […] GLK overexpression in T cells selectively induces IL-17A production in Lck-GLK Tg mice ([18]). […] The inhibition of the production of other cytokines by the high-dose but not low-dose verteporfin treatment may be due to a requirement of higher concentration of verteporfin for an efficient inhibition of NF-κB activation.
# Figure 5 Verteporfin (C1) blocks IL-17 production of human T cells. A) ELISA of various cytokines in supernatants of murine primary T cells stimulated with anti-CD3 or CD28 and cotreated with C1 (5 or 10 μM) for 3 d. Means ± SD are shown; n = 3/group. B) ELISA of various cytokines in supernatants of human T cells. T cells were stimulated with anti-CD3 or CD28 and cotreated with C1 (1 or 5 μM) for 3 d. HC, healthy control; N.S., not significant. Means ± SD are shown. *P < 0.05, **P < 0.01, ***P < 0.001 (2-tailed Student’s t test).
substance,measurement,setting,value
verteporfin,IC50,GCK (MAP4K2),10.3 nM
same,IC50,HPK1 (MAP4K1),7.91 nM
same,"disease severity (clinical score), EAE",EAE mice,significantly suppressed
same,"serum levels of IL-6, TNF-α, IFN-γ, and IL-4, EAE",EAE mice,not significantly decreased
same,"serum IL-17A levels, EAE",EAE mice; day 16,significantly suppressed
same,TCR-induced IL-17A production,murine primary T cells; 5 or 10 μM for 3 d,drastically abolished
same,"TCR-induced IL-17B, IL-17E, and IL-17F levels",murine primary T cells; 5 or 10 μM for 3 d,not significantly decreased
same,TCR-induced TNF-α levels,murine primary T cells; 5 or 10 μM for 3 d,slightly but not significantly reduced
same,TCR-induced IFN-γ levels,murine primary T cells; high-dose 10 μM for 3 d,significantly inhibited
